# Target: T1, T1R2/T1R3 taste receptor (Homo sapiens, UniProt Q8TE23)
# T1 sequence (Q8TE23 20-839): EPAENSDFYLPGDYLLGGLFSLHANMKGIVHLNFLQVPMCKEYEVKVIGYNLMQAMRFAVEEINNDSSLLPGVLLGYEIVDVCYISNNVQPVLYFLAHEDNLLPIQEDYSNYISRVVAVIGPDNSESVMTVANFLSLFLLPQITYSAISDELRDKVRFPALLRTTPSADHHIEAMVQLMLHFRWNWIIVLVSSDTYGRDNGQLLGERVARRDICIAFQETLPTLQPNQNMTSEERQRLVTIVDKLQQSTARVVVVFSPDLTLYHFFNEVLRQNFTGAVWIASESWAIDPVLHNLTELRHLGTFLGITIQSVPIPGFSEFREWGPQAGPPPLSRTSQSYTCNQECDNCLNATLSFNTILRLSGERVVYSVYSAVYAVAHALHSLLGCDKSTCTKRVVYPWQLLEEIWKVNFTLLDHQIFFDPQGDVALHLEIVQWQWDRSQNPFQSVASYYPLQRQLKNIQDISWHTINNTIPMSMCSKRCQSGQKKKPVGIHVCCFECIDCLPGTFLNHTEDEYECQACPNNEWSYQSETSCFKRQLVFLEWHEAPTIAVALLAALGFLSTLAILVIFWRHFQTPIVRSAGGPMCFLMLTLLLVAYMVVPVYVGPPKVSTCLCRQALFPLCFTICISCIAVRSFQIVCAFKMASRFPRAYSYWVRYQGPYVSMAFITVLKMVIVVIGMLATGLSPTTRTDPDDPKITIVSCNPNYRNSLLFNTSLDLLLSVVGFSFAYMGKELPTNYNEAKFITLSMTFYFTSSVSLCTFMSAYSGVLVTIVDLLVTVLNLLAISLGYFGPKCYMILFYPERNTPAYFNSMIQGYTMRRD
# T1 sequence (Q7RTX0 21-852 partner): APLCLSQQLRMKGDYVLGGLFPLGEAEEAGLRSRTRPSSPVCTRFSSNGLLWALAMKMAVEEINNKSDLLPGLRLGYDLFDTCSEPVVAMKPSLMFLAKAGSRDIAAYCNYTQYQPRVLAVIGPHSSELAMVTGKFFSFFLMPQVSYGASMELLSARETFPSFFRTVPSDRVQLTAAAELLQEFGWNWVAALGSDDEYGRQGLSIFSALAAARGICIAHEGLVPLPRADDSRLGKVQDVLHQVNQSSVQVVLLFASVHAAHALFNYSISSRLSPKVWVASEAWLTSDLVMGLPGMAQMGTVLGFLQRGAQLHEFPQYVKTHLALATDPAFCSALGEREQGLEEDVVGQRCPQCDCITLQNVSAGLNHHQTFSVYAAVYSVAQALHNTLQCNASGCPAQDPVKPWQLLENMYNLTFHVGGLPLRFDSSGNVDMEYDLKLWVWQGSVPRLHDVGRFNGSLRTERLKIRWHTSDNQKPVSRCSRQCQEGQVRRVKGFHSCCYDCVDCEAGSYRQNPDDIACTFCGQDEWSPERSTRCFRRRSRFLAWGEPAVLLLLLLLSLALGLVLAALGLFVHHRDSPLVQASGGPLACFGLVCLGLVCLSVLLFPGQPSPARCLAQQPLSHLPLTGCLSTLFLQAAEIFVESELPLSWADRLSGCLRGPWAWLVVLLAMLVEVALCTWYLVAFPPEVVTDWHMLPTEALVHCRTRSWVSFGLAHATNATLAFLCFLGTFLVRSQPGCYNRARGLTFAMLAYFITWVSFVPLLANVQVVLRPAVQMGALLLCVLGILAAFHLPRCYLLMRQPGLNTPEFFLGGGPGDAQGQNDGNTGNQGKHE
# Assay: Receptor-based assay: sweetener EC50 alone and with test compound (enhancement ratio)
# Type: cell-based
# Conditions: for Sucralose Enhancement EC50 Ratio: sweetener sucralose; for Sucrose Enhancement EC50 Ratio: sweetener sucrose; for Fructose Enhancement EC50 Ratio: sweetener fructose
# How it was run: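 Sucrose, sucralose or fructose EC50 measured on human T1R2/T1R3, alone and with 3, 10 or 50 μM test compound. Enhancement is the EC50 ratio without/with compound, binned A >20, B 10-20, C >1 to <10.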
Compound,Sucralose Enhancement EC50 Ratio (10 μM test compound),Sucrose Enhancement EC50 Ratio (3 μM test compound),Sucrose Enhancement EC50 Ratio (10 μM test compound),Sucrose Enhancement EC50 Ratio (50 μM test compound),Fructose Enhancement EC50 Ratio (50 μM test compound),Sucralose Enhancement EC50 Ratio (50 μM test compound),Fructose Enhancement EC50 Ratio (10 μM test compound)
NC1=NS(=O)(=O)Nc2cccc(OC[C@H]3CCCN(c4ccc(C(=O)NCCO)cn4)C3)c21 [Compound 503],A (An “A” value indicates an enhancement ratio of greater than 20),C (A “C” value indicates an enhancement ratio greater than 1 and less than 10),C (A “C” value indicates an enhancement ratio greater than 1 and less than 10),C (A “C” value indicates an enhancement ratio greater than 1 and less than 10),–,–,–
COCCNC(=O)c1ccc(N2CCC[C@H](COc3cccc4c3C(N)=NS(=O)(=O)N4)C2)nc1 [Compound 504],A (An “A” value indicates an enhancement ratio of greater than 20),C (A “C” value indicates an enhancement ratio greater than 1 and less than 10),C (A “C” value indicates an enhancement ratio greater than 1 and less than 10),C (A “C” value indicates an enhancement ratio greater than 1 and less than 10),C (A “C” value indicates an enhancement ratio greater than 1 and less than 10),A (An “A” value indicates an enhancement ratio of greater than 20),–
CN(C)CCNC(=O)c1ccc(N2CCC[C@H](COc3cccc4c3C(N)=NS(=O)(=O)N4)C2)nc1 [Compound 505],C (A “C” value indicates an enhancement ratio greater than 1 and less than 10),C (A “C” value indicates an enhancement ratio greater than 1 and less than 10),C (A “C” value indicates an enhancement ratio greater than 1 and less than 10),C (A “C” value indicates an enhancement ratio greater than 1 and less than 10),C (A “C” value indicates an enhancement ratio greater than 1 and less than 10),A (An “A” value indicates an enhancement ratio of greater than 20),–
CC(C)NC(=O)c1ccc(N2CCC[C@H](COc3cccc4c3C(N)=NS(=O)(=O)N4)C2)nc1 [Compound 506],A (An “A” value indicates an enhancement ratio of greater than 20),C (A “C” value indicates an enhancement ratio greater than 1 and less than 10),C (A “C” value indicates an enhancement ratio greater than 1 and less than 10),C (A “C” value indicates an enhancement ratio greater than 1 and less than 10),–,A (An “A” value indicates an enhancement ratio of greater than 20),–
NC1=NS(=O)(=O)Nc2cccc(OC[C@H]3CCCN(c4ccc(C(=O)NC5CC5)cn4)C3)c21 [Compound 507],A (An “A” value indicates an enhancement ratio of greater than 20),C (A “C” value indicates an enhancement ratio greater than 1 and less than 10),C (A “C” value indicates an enhancement ratio greater than 1 and less than 10),C (A “C” value indicates an enhancement ratio greater than 1 and less than 10),C (A “C” value indicates an enhancement ratio greater than 1 and less than 10),A (An “A” value indicates an enhancement ratio of greater than 20),–
NC1=NS(=O)(=O)Nc2cccc(OC[C@H]3CCCN(c4ccc(C(=O)NC5CCCC5)cn4)C3)c21 [Compound 508],B (A “B” value indicates an enhancement ratio from 10 to 20),C (A “C” value indicates an enhancement ratio greater than 1 and less than 10),C (A “C” value indicates an enhancement ratio greater than 1 and less than 10),C (A “C” value indicates an enhancement ratio greater than 1 and less than 10),C (A “C” value indicates an enhancement ratio greater than 1 and less than 10),A (An “A” value indicates an enhancement ratio of greater than 20),–
NC1=NS(=O)(=O)Nc2cccc(OC[C@H]3CCCN(c4ccc(C(=O)NC5CCCCC5)cn4)C3)c21 [Compound 509],B (A “B” value indicates an enhancement ratio from 10 to 20),C (A “C” value indicates an enhancement ratio greater than 1 and less than 10),C (A “C” value indicates an enhancement ratio greater than 1 and less than 10),C (A “C” value indicates an enhancement ratio greater than 1 and less than 10),C (A “C” value indicates an enhancement ratio greater than 1 and less than 10),A (An “A” value indicates an enhancement ratio of greater than 20),–
CN(C)C(=O)c1ccc(N2CCC[C@H](COc3cccc4c3C(N)=NS(=O)(=O)N4)C2)nc1 [Compound 510],B (A “B” value indicates an enhancement ratio from 10 to 20),C (A “C” value indicates an enhancement ratio greater than 1 and less than 10),C (A “C” value indicates an enhancement ratio greater than 1 and less than 10),A (An “A” value indicates an enhancement ratio of greater than 20),C (A “C” value indicates an enhancement ratio greater than 1 and less than 10),A (An “A” value indicates an enhancement ratio of greater than 20),–
CCN(CC)C(=O)c1ccc(N2CCC[C@H](COc3cccc4c3C(N)=NS(=O)(=O)N4)C2)nc1 [Compound 511],A (An “A” value indicates an enhancement ratio of greater than 20),C (A “C” value indicates an enhancement ratio greater than 1 and less than 10),C (A “C” value indicates an enhancement ratio greater than 1 and less than 10),B (A “B” value indicates an enhancement ratio from 10 to 20),C (A “C” value indicates an enhancement ratio greater than 1 and less than 10),A (An “A” value indicates an enhancement ratio of greater than 20),–
NC1=NS(=O)(=O)Nc2cccc(OC[C@H]3CCCN(c4ccc(C(=O)N5CCCC5)cn4)C3)c21 [Compound 512],A (An “A” value indicates an enhancement ratio of greater than 20),C (A “C” value indicates an enhancement ratio greater than 1 and less than 10),C (A “C” value indicates an enhancement ratio greater than 1 and less than 10),C (A “C” value indicates an enhancement ratio greater than 1 and less than 10),C (A “C” value indicates an enhancement ratio greater than 1 and less than 10),A (An “A” value indicates an enhancement ratio of greater than 20),–
NC1=NS(=O)(=O)Nc2cccc(OC[C@H]3CCCN(c4ccc(C(=O)N5CCCCC5)cn4)C3)c21 [Compound 513],A (An “A” value indicates an enhancement ratio of greater than 20),C (A “C” value indicates an enhancement ratio greater than 1 and less than 10),C (A “C” value indicates an enhancement ratio greater than 1 and less than 10),C (A “C” value indicates an enhancement ratio greater than 1 and less than 10),C (A “C” value indicates an enhancement ratio greater than 1 and less than 10),A (An “A” value indicates an enhancement ratio of greater than 20),C (A “C” value indicates an enhancement ratio greater than 1 and less than 10)
